Tests used:
cRXFP3 [1] = assay: pGL3-CRE-luciferase reporter, inhibition of forskolin-stimulated luciferase activity, HEK293 cells expressing cRXFP3; assay type: cell-based, chicken; conditions: rhRLN3 10^-12 to 10^-7 M, 6 h, HEK293 cells transiently expressing cRXFP3, N = 3, read-out: EC50, cAMP/PKA, cRXFP3 (inhibition of forskolin-stimulated luciferase activity)
Protocol: (§1) According to our previously established methods ([Liu et al., 2019]; [Jiang et al., 2022]), two cell-based luciferase reporter systems (pGL3-CRE-luciferase and pGL3-NFAT-RE-luciferase) were used to verify whether cRLN3cm is biologically active and capable of activating cRXFP1 and cRXFP3. In brief, HEK293 cells transiently expressing each receptor (cRXFP1 and cRXFP3) were treated with 30 μl serum-free medium containing cRLN3cm or pcDNAcm (0.001–10 μl) for 6 h, and the receptor-activated cAMP/PKA pathways and calcium mobilization were then monitored by pGL3-CRE-luciferase and pGL3-NFAT-RE-luciferase reporter systems, respectively. HEK293 cells expressing empty pcDNA3.1 (+) were used as a negative control.
(§2) To compare the functional difference between chicken RLN3 and human RLN3, recombinant human RLN3 (rhRLN3, 10^–12 to 10^–7 M, 6 h) was used to treat HEK293 cells expressing cRXFP1 or cRXFP3, respectively, and its potency in activating cRXFP1 and cRXFP3 was also evaluated.
(§3) To verify whether chicken RLN3 can activate RXFP1 or RXFP3, a cRLN3-conditioned medium (cRLN3cm, 0.001–10 μl) was used to treat HEK293 cells expressing cRXFP1/cRXFP3. Receptor activation was examined by pGL3-CRE-luciferase and pGL3-NFAT-RE-luciferase reporter systems established in our previous studies ([Liu et al., 2019]).

cRXFP1 [2] = assay: pGL3-NFAT-RE-luciferase reporter (calcium mobilization), HEK293 cells expressing cRXFP1; assay type: cell-based, chicken; conditions: rhRLN3 10^-12 to 10^-7 M, 6 h, HEK293 cells transiently expressing cRXFP1, N = 3, read-out: EC50, Ca^2+, cRXFP1
Protocol: as §1, §2, §3

cRXFP3 [3] = assay: pGL3-NFAT-RE-luciferase reporter (calcium mobilization), HEK293 cells expressing cRXFP3; assay type: cell-based, chicken; conditions: rhRLN3 10^-12 to 10^-7 M, 6 h, N = 3
Protocol: as §1, §2, §3

cRXFP1 [4] = assay: pGL3-CRE-luciferase reporter (cAMP/PKA), HEK293 cells expressing cRXFP1; assay type: cell-based, chicken
Protocol: as §1, §2, §3

[5] = test system: HEK293 cells transfected with an empty pcDNA3.1 (+) vector; assay: Luciferase reporter control, HEK293 cells transfected with empty pcDNA3.1 (+) vector; assay type: cell-based; conditions: rhRLN3 10^-12 to 10^-7 M, 6 h; pGL3-CRE and pGL3-NFAT-RE reporters; N = 3
Excerpt: According to our previously established methods ([Liu et al., 2019]; [Jiang et al., 2022]), two cell-based luciferase reporter systems (pGL3-CRE-luciferase and pGL3-NFAT-RE-luciferase) were used to verify whether cRLN3cm is biologically active and capable of activating cRXFP1 and cRXFP3. […] HEK293 cells expressing empty pcDNA3.1 (+) were used as a negative control.
To explore whether pituitary cells can secrete RLN3, we collected the extracellular medium of adult female chicken pituitary cells to detect its activation potential. According to the method provided in the previous article ([Sun et al., 2021]; [Liu et al., 2022]), the anterior pituitaries from a laying hen were isolated and further cut into small pieces with clean scissors. After washing with PBS, the cut pieces were then digested with 0.25% trypsin at 37°C for 30 min. The dispersed pituitary cells were cultured in Medium 199 supplemented with 10% fetal bovine serum in a Corning Cell BIND 48-well plate (Corning, Tewksbury, MA) at 37°C with 5% CO2. […] The HEK293 cells expressing cRXFP1 were treated with a 60 μl serum-free medium containing chicken pituitary cell extracellular medium (2 × 10^−3μl to 2 × 10^1 μl) for 6 h, and then receptor-activated calcium mobilization was monitored by pGL3-NFAT-RE-luciferase reporter systems. […]

EC50 (cRXFP3 [1]): 41.5 nM | EC50 (cRXFP1 [2]): 21.1 nM | EC50 (cRXFP1 [4]; rhRLN3 10^-12 to 10^-7 M, 6 h, HEK293 cells transiently expressing cRXFP1, mean of three replicates (N = 3)): 2.68 nM
Substance: recombinant human relaxin 3 [rhRLN3]
stimulation of luciferase activity (Ca^2+), cRXFP3 (cRXFP3 [3]): not cRXFP3 | potency on cRXFP1 compared with cRXFP3 (in words) (cRXFP1 [4]; HEK293 cells expressing cRXFP1 or cRXFP3): higher potency for cRXFP1 activation | change of luciferase activity in empty-vector cells [5]: did not change the luciferase activity
